Measured values published in patent US20250100994A1, “CDK12/13 COVALENT INHIBITORS OR PHARMACEUTICAL COMPOSITION THEREOF, AND USES THEREOF” (The Regents of the University of Michigan, priority 2023, published 2025).

How the values were obtained:
[1] = molecular target: CDK12 (Homo sapiens (Human), UniProt Q9NYV4); assay: LANCE Ultra kinase assay, CDK12; type: biochemical; conditions: 30 nM enzyme, 60 min pre-incubation, ULight-4E-BP1 150 nM; read-out: CDK12 IC50
Description: (§1) The inhibitory activities of the test compound on the kinases were evaluated by LANCE Ultra assay, which was used for detecting ATP-dependent phosphorylation of a ULight-4E-BP1 (Thr37/Thr46) substrate peptide (150 nM). In short, enzymatic reactions were performed in a reaction buffer (25 mM HEPES (pH 7.5), 10 mM MgCl2, 0.01% BSA, 0.01% Tween 20, and 1 mM DTT). The assay was performed in a 384-well plate (6 μL). A final concentration of an ATP substrate was […], and a final concentration of the ULight-4E-BP1 (Thr37/Thr46) substrate peptide was 150 nM. A final concentration of CDK9, CDK12, or CDK13 was 0.3, 30, or 30 nM, respectively. Pre-incubation of the compound and the enzyme was performed at room temperature for 60 min. The reaction was stopped by adding 10 mM EDTA and 0.15 nM Eu-labeled anti-phospho-eIF4E-binding protein 1 (Thr37/46) antibody in LANCE detection buffer after incubation at room temperature for 15, 60, or 90 min. Time-resolved fluorescence (excitation, 320 nm; emission donor, 615 nm; emission acceptor, 665 nm) was monitored using an EnVision spectrophotometer (PerkinElmer). Readings were computed as (acceptor count/donor count)×1000. IC50 values were derived by fitting a sigmoidal dose-response curve to a plot of assay readouts of inhibitor concentrations. All fittings were computed using program Prism 5.03 (GraphPad Software, San Diego, CA).

[2] = molecular target: CDK13 (Homo sapiens (Human), UniProt Q14004); assay: LANCE Ultra kinase assay, CDK13; type: biochemical; conditions: 30 nM enzyme, 60 min pre-incubation, ULight-4E-BP1 150 nM; read-out: CDK13 IC50
Description: as §1

[3] = tested on: VCaP cell; assay: VCaP cell proliferation, CellTiter-Glo Luminescent Cell Viability Assay; type: cell-based; conditions: Homo sapiens, VCaP cells
Description: The VCaP cell proliferation activity was determined by CellTiter-Glo Luminescent Cell Viability Assay (Promega, Madison, WI). The cells were inoculated on a 96-well plate in their respective culture mediums, and incubated in an incubator with 5% CO2 at 37° C. After incubation overnight, serial dilutions of the compound were prepared, and added into the 96-well plate. A CellTiter-Glo reagent (volume equal to the volume of the cell culture medium present in each well) was added (e.g., 100 μL of the reagent was added into 100 μL of the cell culture medium in the 96-well plate). The contents were mixed on an orbital shaker for 2 min to induce the cell lysis. The cells in the 96-well plate were incubated at room temperature for 10 min, to stabilize the luminescent signal. Luminescence was recorded: the luminescent signal for each well was acquired using an Infinite M1000 Pro plate reader (Tecan, Zurich, Switzerland), and the data was analyzed using GraphPad Prism software (GraphPad Software Inc, La Jolla, CA).

CDK12, sequence (Q9NYV4 whole entry): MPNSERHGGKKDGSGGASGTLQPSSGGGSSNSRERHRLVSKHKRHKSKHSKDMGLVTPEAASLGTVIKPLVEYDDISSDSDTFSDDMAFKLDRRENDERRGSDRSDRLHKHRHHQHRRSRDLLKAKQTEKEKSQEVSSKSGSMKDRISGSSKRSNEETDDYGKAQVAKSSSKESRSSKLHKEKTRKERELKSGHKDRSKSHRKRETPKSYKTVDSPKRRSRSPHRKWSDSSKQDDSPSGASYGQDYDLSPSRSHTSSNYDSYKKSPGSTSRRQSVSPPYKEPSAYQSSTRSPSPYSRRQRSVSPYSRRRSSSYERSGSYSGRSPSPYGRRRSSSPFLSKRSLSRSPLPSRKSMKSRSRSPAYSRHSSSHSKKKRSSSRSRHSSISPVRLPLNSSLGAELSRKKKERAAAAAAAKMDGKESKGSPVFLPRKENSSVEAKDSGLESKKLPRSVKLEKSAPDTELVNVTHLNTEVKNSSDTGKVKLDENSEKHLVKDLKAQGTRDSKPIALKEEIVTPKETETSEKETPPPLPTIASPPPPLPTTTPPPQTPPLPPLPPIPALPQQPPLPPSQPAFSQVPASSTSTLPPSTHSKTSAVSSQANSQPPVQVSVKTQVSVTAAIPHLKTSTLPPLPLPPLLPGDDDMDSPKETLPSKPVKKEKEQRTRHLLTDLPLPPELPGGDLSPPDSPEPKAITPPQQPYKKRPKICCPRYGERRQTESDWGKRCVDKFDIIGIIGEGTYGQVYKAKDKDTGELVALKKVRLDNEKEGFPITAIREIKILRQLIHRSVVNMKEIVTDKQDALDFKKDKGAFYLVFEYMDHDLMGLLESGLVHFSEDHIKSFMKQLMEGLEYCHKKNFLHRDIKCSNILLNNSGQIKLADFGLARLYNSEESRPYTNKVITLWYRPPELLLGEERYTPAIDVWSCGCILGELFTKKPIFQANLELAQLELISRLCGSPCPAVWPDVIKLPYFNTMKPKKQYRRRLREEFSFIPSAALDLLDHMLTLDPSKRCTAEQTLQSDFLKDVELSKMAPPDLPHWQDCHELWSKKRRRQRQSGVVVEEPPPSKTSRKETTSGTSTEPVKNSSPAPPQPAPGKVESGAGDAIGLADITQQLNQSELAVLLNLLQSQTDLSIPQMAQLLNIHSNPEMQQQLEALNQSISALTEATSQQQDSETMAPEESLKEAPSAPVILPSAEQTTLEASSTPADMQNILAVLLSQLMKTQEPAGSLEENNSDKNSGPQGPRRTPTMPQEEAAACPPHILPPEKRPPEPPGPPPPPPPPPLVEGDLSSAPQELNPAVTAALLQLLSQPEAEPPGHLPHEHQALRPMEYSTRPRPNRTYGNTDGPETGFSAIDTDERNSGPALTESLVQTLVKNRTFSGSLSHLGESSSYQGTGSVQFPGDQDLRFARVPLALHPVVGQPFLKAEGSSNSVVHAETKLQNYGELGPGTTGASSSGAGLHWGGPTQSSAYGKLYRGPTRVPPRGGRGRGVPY
CDK12, sequence (O75909 whole entry partner): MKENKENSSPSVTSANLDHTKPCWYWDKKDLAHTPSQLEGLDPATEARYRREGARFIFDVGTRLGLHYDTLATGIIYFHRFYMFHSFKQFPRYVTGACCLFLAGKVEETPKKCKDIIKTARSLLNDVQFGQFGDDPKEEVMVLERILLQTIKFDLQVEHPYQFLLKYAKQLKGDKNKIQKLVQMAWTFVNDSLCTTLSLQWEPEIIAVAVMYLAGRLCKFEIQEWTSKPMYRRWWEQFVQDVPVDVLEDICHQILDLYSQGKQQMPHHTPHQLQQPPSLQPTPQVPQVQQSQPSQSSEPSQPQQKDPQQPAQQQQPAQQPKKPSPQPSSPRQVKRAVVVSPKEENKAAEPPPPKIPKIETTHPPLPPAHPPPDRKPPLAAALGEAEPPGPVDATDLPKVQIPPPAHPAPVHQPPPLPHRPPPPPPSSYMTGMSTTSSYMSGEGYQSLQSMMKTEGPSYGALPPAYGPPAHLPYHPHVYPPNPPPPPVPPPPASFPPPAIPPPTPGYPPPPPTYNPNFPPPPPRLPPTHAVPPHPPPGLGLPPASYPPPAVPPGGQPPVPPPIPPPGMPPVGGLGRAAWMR
CDK13, sequence (Q14004 whole entry, looked up): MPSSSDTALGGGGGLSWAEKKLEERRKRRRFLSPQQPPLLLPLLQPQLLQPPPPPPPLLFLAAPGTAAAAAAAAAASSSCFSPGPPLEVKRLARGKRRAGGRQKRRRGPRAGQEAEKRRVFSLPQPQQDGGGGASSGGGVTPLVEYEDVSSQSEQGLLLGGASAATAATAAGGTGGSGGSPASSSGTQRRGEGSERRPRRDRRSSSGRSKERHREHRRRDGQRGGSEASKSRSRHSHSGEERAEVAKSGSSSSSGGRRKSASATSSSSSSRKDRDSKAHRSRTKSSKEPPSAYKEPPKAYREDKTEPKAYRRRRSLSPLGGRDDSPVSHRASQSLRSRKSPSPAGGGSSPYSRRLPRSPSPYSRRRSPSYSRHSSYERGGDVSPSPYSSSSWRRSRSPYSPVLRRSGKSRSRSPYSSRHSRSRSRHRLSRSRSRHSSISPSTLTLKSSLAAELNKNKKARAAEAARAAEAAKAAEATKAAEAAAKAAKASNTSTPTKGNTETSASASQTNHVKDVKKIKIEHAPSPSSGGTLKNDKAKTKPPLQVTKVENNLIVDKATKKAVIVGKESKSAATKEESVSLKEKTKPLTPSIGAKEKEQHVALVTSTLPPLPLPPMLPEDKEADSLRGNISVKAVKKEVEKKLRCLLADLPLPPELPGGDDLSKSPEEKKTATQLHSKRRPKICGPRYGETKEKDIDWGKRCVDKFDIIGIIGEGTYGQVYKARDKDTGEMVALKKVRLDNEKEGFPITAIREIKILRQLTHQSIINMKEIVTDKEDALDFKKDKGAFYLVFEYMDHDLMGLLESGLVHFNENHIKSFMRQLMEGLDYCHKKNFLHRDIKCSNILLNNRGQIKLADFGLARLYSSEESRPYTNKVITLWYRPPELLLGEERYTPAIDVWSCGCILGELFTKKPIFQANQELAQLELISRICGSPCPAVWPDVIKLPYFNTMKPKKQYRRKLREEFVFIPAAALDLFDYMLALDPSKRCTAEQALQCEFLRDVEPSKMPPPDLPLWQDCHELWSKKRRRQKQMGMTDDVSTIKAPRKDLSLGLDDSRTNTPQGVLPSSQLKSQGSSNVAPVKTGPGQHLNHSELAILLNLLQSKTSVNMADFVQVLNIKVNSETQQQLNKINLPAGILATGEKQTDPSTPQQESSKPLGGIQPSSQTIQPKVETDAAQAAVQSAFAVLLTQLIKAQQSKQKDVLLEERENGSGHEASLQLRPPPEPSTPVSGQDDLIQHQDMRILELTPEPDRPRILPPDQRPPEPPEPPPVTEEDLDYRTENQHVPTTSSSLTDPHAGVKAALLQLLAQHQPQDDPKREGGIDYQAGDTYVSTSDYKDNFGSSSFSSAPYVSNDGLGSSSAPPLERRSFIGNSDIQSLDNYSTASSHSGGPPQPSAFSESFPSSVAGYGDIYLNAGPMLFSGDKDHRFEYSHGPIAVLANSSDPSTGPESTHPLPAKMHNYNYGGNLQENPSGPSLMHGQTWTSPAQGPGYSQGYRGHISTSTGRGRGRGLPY
CDK13, sequence (O75909 whole entry partner, looked up): as the sequence (O75909 whole entry partner) above

| SMILES | IC50 [1] [nM] | IC50 [2] [nM] | IC50 [3] [nM] |
| --- | --- | --- | --- |
| C=CC(=O)Nc1cc(N(C(=O)NCc2ccccc2Cl)[C@H]2CC[C@H](Nc3ccc(C#N)cn3)CC2)ccc1N1CCN(C)[C@@H](C)C1 [YJZ1060, N-(5-(3-(2-chlorobenzyl)-1-((1r,4S)-4-((5-cyanopyridin-2-yl)amino)cyclohexyl)ureido)-2-((S)-3,4-dimethylpiperazin-1-yl)phenyl)acrylamide] | < 15 | < 15 | – |
| CN(C)C/C=C/C(=O)Nc1cc(N(C(=O)NCc2ccccc2)[C@H]2CC[C@H](Nc3ccc(C#N)cn3)CC2)ccc1-c1ccc(=O)n(C)c1 [YJZ5078] | – | – | 50 to 500 |
| C=CC(=O)Nc1cc(N(C(=O)NCC(F)(F)F)[C@H]2CC[C@H](Nc3ccc(C#N)cn3)CC2)ccc1N1CCN(C)[C@@H](C)C1 [YJZ1065, N-(5-(1-((1r,4S)-4-((5-cyanopyridin-2-yl)amino)cyclohexyl)-3-(2,2,2-trifluoroethyl)ureido)-2-((S)-3,4-dimethylpiperazin-1-yl)phenyl)acrylamide] | 50 to 500 | 50 to 500 | – |
| C=CC(=O)Nc1cc(N(C(=O)NCc2cccnc2)[C@H]2CC[C@H](Nc3ccc(C#N)cn3)CC2)ccc1N1CCN(C)[C@@H](C)C1 [YJZ1061, N-(5-(1-((1r,4S)-4-((5-cyanopyridin-2-yl)amino)cyclohexyl)-3-(pyridin-3-ylmethyl)ureido)-2-((S)-3,4-dimethylpiperazin-1-yl)phenyl)acrylamide] | 50 to 500 | 50 to 500 | – |
| C=CC(=O)Nc1cc(N(C(=O)NCc2ccccc2)[C@H]2CC[C@H](Nc3ccc(Cl)cn3)CC2)ccc1N1CCN(C)[C@@H](C)C1 [YJZ1070, N-(5-(3-benzyl-1-((1r,4S)-4-((5-chloropyridin-2-yl)amino)cyclohexyl)ureido)-2-((S)-3,4-dimethylpiperazin-1-yl)phenyl)acrylamide] | 15 to 50 | 15 to 50 | – |
| C=CC(=O)Nc1cc(N(C(=O)NCc2cnn(C)c2)[C@H]2CC[C@H](Nc3ccc(C#N)cn3)CC2)ccc1N1CCN(C)[C@@H](C)C1 [YJZ1033, N-(5-(1-((1r,4S)-4-((5-cyanopyridin-2-yl)amino)cyclohexyl)-3-((1-methyl-1H-pyrazol-4-yl)methyl)ureido)-2-((S)-3,4-dimethylpiperazin-1-yl)phenyl)acrylamide] | > 500 | 50 to 500 | – |
| C=CC(=O)Nc1cc(N(C(=O)NCc2ccccc2)[C@H]2CC[C@H](Nc3ccc(C(F)(F)F)cn3)CC2)ccc1N1CCN(C)[C@@H](C)C1 [YJZ1066, N-(5-(3-benzyl-1-((1r,4S)-4-((5-(trifluoromethyl)pyridin-2-yl)amino)cyclohexyl)ureido)-2-((S)-3,4-dimethylpiperazin-1-yl)phenyl)acrylamide] | 15 to 50 | < 15 | – |
| C=CC(=O)Nc1cc(N(C(=O)NCC2COC2)[C@H]2CC[C@H](Nc3ccc(C#N)cn3)CC2)ccc1N1CCN(C)[C@@H](C)C1 [YJZ1031, N-(5-(1-((1r,4S)-4-((5-cyanopyridin-2-yl)amino)cyclohexyl)-3-(oxetanyl-3-ylmethyl)ureido)-2-((S)-3,4-dimethylpiperazin-1-yl)phenyl)acrylamide] | > 500 | > 500 | – |
| C=CC(=O)Nc1cc(N(C(=O)NCC2CC2)[C@H]2CC[C@H](Nc3ccc(C#N)cn3)CC2)ccc1N1CCN(C)[C@@H](C)C1 [YJZ1025, N-(5-(1-((1r,4S)-4-((5-cyanopyridin-2-yl)amino)cyclohexyl)-3-(cyclopropylmethyl)ureido)-2-((S)-3,4-dimethylpiperazin-1-yl)phenyl)acrylamide] | 50 to 500 | 50 to 500 | – |
| C=CC(=O)Nc1cc(N(C(=O)NCc2cocn2)[C@H]2CC[C@H](Nc3ccc(C#N)cn3)CC2)ccc1N1CCN(C)[C@@H](C)C1 [YJZ1063, N-(5-(1-((1r,4S)-4-((5-cyanopyridin-2-yl)amino)cyclohexyl)-3-(oxazol-4-ylmethyl)ureido)-2-((S)-3,4-dimethylpiperazin-1-yl)phenyl)acrylamide] | 50 to 500 | 50 to 500 | – |
| C=CC(=O)Nc1cc(N(C(=O)NCc2ccccc2)[C@H]2CC[C@H](Nc3ccc(C#N)cn3)CC2)ccc1N1CCN(C)CC1 [YJZ5114, N-(5-(3-benzyl-1-((1r,4r)-4-((5-cyanopyridin-2-yl)amino)cyclohexyl)ureido)-2-(4-methylpiperazin-1-yl)phenyl)acrylamide] | 50 to 500 | 50 to 500 | – |
| C=C(F)C(=O)Nc1cc(N(C(=O)NCc2ccccc2)[C@H]2CC[C@H](Nc3ccc(C#N)cn3)CC2)ccc1N1CCN(C)[C@@H](C)C1 [YJZ1072, N-(5-(3-benzyl-1-((1r,4S)-4-((5-cyanopyridin-2-yl)amino)cyclohexyl)ureido)-2-((S)-3,4-dimethylpiperazin-1-yl)phenyl)-2-fluoroacrylamide] | 50 to 500 | 15 to 50 | – |

Continued, values first:

| IC50 [1] [nM] | IC50 [2] [nM] | IC50 [3] [nM] | SMILES |
| --- | --- | --- | --- |
| 15 to 50 | < 15 | – | C=CC(=O)Nc1cc(N(C(=O)NCc2cccc(F)c2)[C@H]2CC[C@H](Nc3ccc(C#N)cn3)CC2)ccc1N1CCN(C)[C@@H](C)C1 [YJZ9177, N-(5-(1-((1r,4S)-4-((5-cyanopyridin-2-yl)amino)cyclohexyl)-3-(3-fluorobenzyl)ureido)-2-((S)-3,4-dimethylpiperazin-1-yl)phenyl)acrylamide] |
| 15 to 50 | 15 to 50 | – | C=CC(=O)Nc1cc(N(C(=O)N[C@@H](C)c2ccccc2)[C@H]2CC[C@H](Nc3ccc(C#N)cn3)CC2)ccc1N1CCN(C)[C@@H](C)C1 [YJZ9170, N-(5-(1-((1r,4S)-4-((5-cyanopyridin-2-yl)amino)cyclohexyl)-3-((S)-1-phenylethyl)ureido)-2-((S)-3,4-dimethylpiperazin-1-yl)phenyl)acrylamide] |
| 15 to 50 | 15 to 50 | – | C=CC(=O)Nc1cc(N(C(=O)NCc2ccc(F)cc2)[C@H]2CC[C@H](Nc3ccc(C#N)cn3)CC2)ccc1N1CCN(C)[C@@H](C)C1 [YJZ9166, N-(5-(1-((1r,4S)-4-((5-cyanopyridin-2-yl)amino)cyclohexyl)-3-(4-fluorobenzyl)ureido)-2-((S)-3,4-dimethylpiperazin-1-yl)phenyl)acrylamide] |
| < 15 | 15 to 50 | – | C=CC(=O)Nc1cc(N(C(=O)NCc2ccccc2)[C@H]2CC[C@H](Nc3ccc(C#N)cn3)CC2)cnc1N1CCN(C)[C@@H](C)C1 [YJZ9171, N-(5-(3-benzyl-1-((1r,4S)-4-((5-cyanopyridin-2-yl)amino)cyclohexyl)ureido)-2-((S)-3,4-dimethylpiperazin-1-yl)pyridin-3-yl)acrylamide] |
| – | – | 50 to 500 | C=CC(=O)Nc1cc(Br)cc(N(C(=O)NCc2ccccc2)[C@H]2CC[C@H](Nc3ccc(C#N)cn3)CC2)c1 [YJZ8053, N-(3-(3-benzyl-1-((1r,4r)-4-((5-cyanopyridin-2-yl)amino)cyclohexyl)ureido)-5-bromophenyl)acrylamide] |
| 15 to 50 | < 15 | – | C=CC(=O)Nc1cc(N(C(=O)NCc2ccccc2)[C@H]2CC[C@H](Nc3ccc(C#N)cn3)CC2)ccc1Br [YJZ6048, N-(5-(3-benzyl-1-((1r,4r)-4-((5-cyanopyridin-2-yl)amino)cyclohexyl)ureido)-2-bromophenyl)acrylamide] |
| > 500 | 50 to 500 | – | C=CC(=O)Nc1cc(N(C(=O)N[C@H](C)c2ccccc2)[C@H]2CC[C@H](Nc3ccc(C#N)cn3)CC2)ccc1N1CCN(C)[C@@H](C)C1 [YJZ9176, N-(5-(1-((1r,4R)-4-((5-cyanopyridin-2-yl)amino)cyclohexyl)-3-((R)-1-phenylethyl)ureido)-2-((S)-3,4-dimethylpiperazin-1-yl)phenyl)acrylamide] |
| 15 to 50 | < 15 | – | C=CC(=O)Nc1cc(N(C(=O)NCc2ccccc2F)[C@H]2CC[C@H](Nc3ccc(C#N)cn3)CC2)ccc1N1CCN(C)[C@@H](C)C1 [YJZ9179, N-(5-(1-((1r,4S)-4-((5-cyanopyridin-2-yl)amino)cyclohexyl)-3-(2-fluorobenzyl)ureido)-2-((S)-3,4-dimethylpiperazin-1-yl)phenyl)acrylamide] |
| 50 to 500 | 50 to 500 | – | C=CC(=O)Nc1cc(N(C(=O)NC2CC2)[C@H]2CC[C@H](Nc3ccc(C#N)cn3)CC2)ccc1N1CCN(C)[C@@H](C)C1 [YJZ9173, N-(5-(1-((1r,4S)-4-((5-cyanopyridin-2-yl)amino)cyclohexyl)-3-cyclopropylureido)-2-((S)-3,4-dimethylpiperazin-1-yl)phenyl)acrylamide] |
